Data published in patent US10899781B2, “Platinum complex, its preparation and therapeutic use” (City University of Hong Kong, priority 2018, dated 2021).

Experiments:
[1] = test system: MRC-5 normal human lung fibroblasts; assay: Cytotoxicity, MTT assay; type: cell-based; conditions: in dark, MTT at 40 h
Method: (§1) The biological activity of Complex A was subsequently evaluated. A2780 cells were maintained in Roswell Park Memory Institution (RPMI) 1640 medium supported with 10% FBS, 2 mM L-glutamine, and 100 unit/mL penicillin/streptomycin. MCF-7 cells were cultured in Dulbecco's modified Eagle's medium supported with 10% FBS and 100 unit/mL penicillin/streptomycin. MRC-5 cells were maintained in Eagle's minimum essential medium supported with 10% FBS, 1 mM sodium pyruvate, 2 mM L-glutamine, 1 mM non-essential amino acid and 100 unit/mL penicillin/streptomycin. All the cells were incubated in a humidified incubator at 37° C. with 5% CO2
Cytotoxicity test was performed by exposing the cancer cells with Complex A. The viability of cancer cells exposed was evaluated by means of MTT assay. Cells were seeded in 96-well plates at a density of 3,000 cells per well and incubated until the cell confluency reached 50%. Then, the medium was removed and replaced with fresh medium containing different concentrations of complexes with 1% DMF. […] The absorbance at 570 nm and 730 nm of each well was measured by using a microplate reader (BioTek PowerWave XS).
The cytotoxicity of Complex A was then evaluated, using oxaliplatin and PPA as controls. Cells were treated with the compounds for 8 h, followed by irradiation or incubation in the dark, and the cell viability was measured by the MTT assay after 40 h. […]

MCF-7 cells = assay: Cytotoxicity, MTT assay; type: cell-based, human
Method: as §1
(§2) Cytotoxicity test was performed by exposing the cancer cells with Complex A. The viability of cancer cells exposed was evaluated by means of MTT assay. Cells were seeded in 96-well plates at a density of 3,000 cells per well and incubated until the cell confluency reached 50%. Then, the medium was removed and replaced with fresh medium containing different concentrations of complexes with 1% DMF. After 8 h, the medium was aspirated, the well was washed with PBS for twice, and Earle's balanced salt solution (EBSS) was added. […] The EBSS was removed, and fresh complete cell culture medium was added to each well. After 40 h, the medium was changed to serum-free medium containing 1 mg/mL MTT. After 2 h additional incubation, the medium was removed, and DMSO (200 μL) was delivered to each well to dissolve the formed purple formazan. The absorbance at 570 nm and 730 nm of each well was measured by using a microplate reader (BioTek PowerWave XS).
(§3) The cytotoxicity of Complex A was then evaluated, using oxaliplatin and PPA as controls. Cells were treated with the compounds for 8 h, followed by irradiation or incubation in the dark, and the cell viability was measured by the MTT assay after 40 h. Complex A is non-toxic to the tested cells in the dark, and is very active under irradiation.

[2] = test system: A2780cisR (platinum-resistant A2780 cells); assay: Cytotoxicity, MTT assay; type: cell-based, human; conditions: for IC50: A2780cisR, 8 h treatment
Method: as §1, §2, §3

[3] = test system: A2780 ovarian carcinoma cells; assay: Cytotoxicity, MTT assay; type: cell-based, human; conditions: 8 h treatment
Method: as §1, §2, §3

A2780 cells = assay: Cellular accumulation of platinum by ICP-MS; type: cell-based, human; conditions: after 8 h
Method: FIG. 5 is a plot showing the accumulation of Complex A in A2780 cells after treatment with 0.5 μM Complex A for 1 to 12 h.
The inventors first tested the cellular accumulation of Complex A by ICP-MS. Platinum accumulation in A2780 cells increases dramatically over time before 8 h and very slowly increases over time after 8 h. Thus, an incubation time of 8 h is selected for the following biological assays.
The cellular accumulation levels of Pt in A2780 cells treated with Complex A and oxaliplatin after 8 h are 6.4±1.2 and 0.9±0.1 ng Pt/106 cells, respectively. […] The cellular distribution of Complex A was also observed.

[4] = Photoactivation (photo-reduction) of Complex A under 650 nm irradiation, HPLC; type: physicochemical; conditions: mixture of the compound and PPA in the presence of ascorbate
Method: FIG. 3 is a combined RP-HPLC chromatogram showing the intensity of Complex A and PPA after 10 μM Complex A in PBS buffer containing 1% DMF and 1 mM ascorbate was subject to irradiation at 650 nm with a power density of 7 mW/cm^2 for different time periods (from 0 min to 30 min). Peak 1 corresponds to Complex A, and Peak 2 corresponds to PPA.
FIG. 4 is a plot showing the amount of Complex A and PPA after subjecting to irradiation at 650 nm calculated from the results in FIG. 3.
The photoactivation property of Complex A was investigated. Buffer solution containing 10 μM Complex A with 1 mM ascorbate in a quartz cuvette was irradiated with LED lamp (650 nm, 7 mW/cm^2) under stirring. Samples were analyzed by HPLC. […] After irradiation for 10 min, 81% of Complex A was reduced, and most of the complex was reduced within 30 min. Irradiation of Complex A without the presence of ascorbate also leads to the release of PPA and oxaliplatin, but the reaction speed is much slower.
The inventors further investigated the mechanism of the reduction Complex A. No overlap was observed between the absorbance spectra of PPA and the dihydroxyl Pt(IV) compound [Pt(DACH)(OH)2(ox)]. […] The normalized fluorescence intensity of PPA and Complex A is identical, and the fluorescence lifetime of Complex A is 7 ns in DMF, which is the same as PPA. […]

Fluorescence lifetime = type: physicochemical; conditions: in DMF
Excerpt: The inventors further investigated the mechanism of the reduction Complex A. No overlap was observed between the absorbance spectra of PPA and the dihydroxyl Pt(IV) compound [Pt(DACH)(OH)2(ox)]. Therefore, direct energy transfer may not occur between PPA and the Pt(IV) center. […] The normalized fluorescence intensity of PPA and Complex A is identical, and the fluorescence lifetime of Complex A is 7 ns in DMF, which is the same as PPA. […] Since PPA is able to generate reactive oxygen species (ROS) and singlet oxygen through type I and type II photo process, respectively, the inventors used a hydroxyl radical scavenger, DMSO, and a singlet oxygen scavenger, NaN3, to investigate the electron transfer process. […] Thus, without to be bound by theory, the inventors believe that hydroxy radical is involved in the reaction, and the elimination of hydroxy radical may accelerate the reaction. Furthermore, it was observed that the reduction rate is related to the water content in the system.

[5] = with irradiation at 650 nm (7 mW/cm^2) for 15 min, MTT at 40 h after irradiation
[6] = Homo sapiens, light or radiation study, with irradiation at 650 nm (7 mW/cm^2) for 15 min, MTT at 40 h after irradiation
[7] = Homo sapiens, in the dark, MTT at 40 h

Q: Which results are given for `O=C1[O][Pt]2([NH][C@@H]3CCCC[C@H]3[NH]2)[O]C1=O` [Oxaliplatin, oxaliplatin]?
A: IC50 ([1]; 8 h treatment): 122 ± 5.2 µM; IC50 (MCF-7 cells; 8 h treatment, in the dark, MTT at 40 h): 110 ± 4.3 µM; IC50 (MCF-7 cells; 8 h treatment, with irradiation at 650 nm (7 mW/cm^2) for 15 min, MTT at 40 h after irradiation): 78.6 ± 8.7 µM; IC50 ([2]; in the dark, MTT at 40 h): 162 ± 9 µM; IC50 [2, 5]: 185 ± 8 µM; resistant factor ([2]; IC50 towards cisplatin-resistant cells divided by IC50 towards non-resistant cells (A2780cisR / A2780)): 2.7; IC50 ([3]; in the dark, MTT at 40 h): > 40 µM; IC50 [3, 5]: > 40 µM; cellular accumulation levels of Pt (A2780 cells): 0.9±0.1 ng Pt/106 cells

Q: With “[Pt(DACH)(OH)2(ox)] [[(Pt(DACH)(OH)2(ox))]]” as the compound, how does the reduction under irradiation [4] read?
A: Its reduction under irradiation is “cannot be reduced”.

Q: With `C=Cc1c(C)c2cc3nc(c4c5[nH]c(cc6nc(cc1[nH]2)C(C)=C6CC)c(C)c5C(=O)C4)[C@@H](CCC(=O)O)[C@@H]3C` [PPA, pyropheophorbide a] as the compound, how does the IC50 ([1]; Homo sapiens, MRC5, 8 h treatment) read?
A: The IC50 was over 10 µM.

Q: And the IC50 (MCF-7 cells; Homo sapiens, MCF7, 8 h treatment, in the dark, MTT at 40 h)?
A: Its IC50 is over 10 µM.

Q: What about the IC50 (MCF-7 cells; Homo sapiens, MCF7, light or radiation study, 8 h treatment, with irradiation at 650 nm (7 mW/cm^2) for 15 min, MTT at 40 h after irradiation) of the same compound?
A: The IC50 was 0.2 ± 0.02 µM.

Q: What about the IC50 [2, 6] of the same compound?
A: Its IC50 is 0.23 ± 0.01 µM.

Q: What about the IC50 [2, 7] of the same compound?
A: The IC50 was over 10 µM.

Q: And the IC50 [3, 7]?
A: Its IC50 is over 10 µM.

Q: And the IC50 [3, 6]?
A: Its IC50 is 0.34 ± 0.05 µM.

Q: What about the fluorescence lifetime (Fluorescence lifetime) of the same compound?
A: Its fluorescence lifetime is 7 ns.
